Laboratory results: patent US8338565B2, “Macrocyclic compounds for inhibition of tumor necrosis factor alpha” (Ensemble Therapeutics Corporation, priority 2008, dated 2012)
Like-named read-outs stand apart in the source and are kept apart here. Numbered stars: 1 amine (or outer) side, 2 acyl side, 3 side chain; on linkers, the order of the positions; unused ones are H or OH. Bridge positions count the residues as written; N and C are the ends. Square brackets hold non-standard residues; d marks the D form. Peptide text beside a SMILES is read from it. Tartaroyl(2R,3R-(OAc)2) = CC(=O)O[C@@H](C(=O)[*:1])[C@@H](OC(C)=O)C(=O)[*:2]; dPhe(4-NH2) = Nc1ccc(C[C@@H](N)C(=O)O)cc1; Phe(4-Br) = N[C@@H](Cc1ccc(Br)cc1)C(=O)O; d2Thi = N[C@H](Cc1cccs1)C(=O)O

Assays:
[1] = molecular target: T1, TNFα / TNFα receptor (TNFα R1/Fc) (Homo sapiens, UniProt P01375); experiment: Inhibition of binding of TNFα to the TNFα receptor (plate ELISA competition); conditions: Table 2
T1 construct: purchased R&D Systems
Method in brief: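 Compound dilutions were preincubated 30 min at RT with 8.33 nM TNFα R1/Fc in PBST with 2% DMSO, then added to wells coated with 15 nM TNFα for 30 min. Bound receptor was detected with HRP anti-human Fc and TMB, read as A450.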

[2] = test system: TNF-α (degradation of IkB in HeLa cells or A431 cells); experiment: Human cell-based assay: inhibition of TNF-α induced degradation of IkB; conditions: for inhibition at 5 µM: read-out: Inhibition at Various Compound Concentrations, 5 μM; for inhibition at 10 µM: read-out: Inhibition at Various Compound Concentrations, 10 μM
rat paw edema model = experiment: Rat paw edema model (carrageenan), anti-inflammatory activity; type: in vivo, Sprague-Dawley (SD) rats
Procedure: Compounds 3, 4, 10 and 202 were tested in a rat paw edema model to determine anti-inflammatory activity. Seven groups (one for Vehicle A [15 mL PEG400, 3 mL Graves Grain alcohol (190 proof), 1.8 mL dimethylacetamide and 10.2 mL deionized water] alone as a negative control, one for Vehicle B [0.1M NaHCO3] alone as a negative control, one for each of the four test compounds dissolved in Vehicle A, and one for indomethacin dissolved in Vehicle B as a positive control), each group containing six Sprague-Dawley (SD) rats (180-200 g) randomized by weight. Initial paw volumes were measured by placing the right hind limb of the rat up to the top of the hock in a beaker of water sitting on a scale that had been tared to zero and recording the readout.
Rats were pre-treated with either i) one of the test compounds, or ii) a positive or negative control. Vehicle A alone and test compound dissolved in Vehicle A (Compound 3-1.0 mg/kg; Compound 4-0.4 mg/kg; Compound 10-0.5 mg/kg; Compound 202-0.3 mg/kg) were administered by intravenous injection. Vehicle B alone and indomethacin (5 mg/kg in 0.1M NaHCO3) was administered by intraperitoneal injection. Thirty minutes after this pretreatment, rats were anesthetized and injected with 0.1 mL of carrageenan (10 mg/mL in water) in the subplantar region of the right hind foot using a ½ inch 26 gauge needle attached to a 1 cc syringe.
At 2, 4 and 6 hours post-carrageenan injection, the right hind foot of each rat was measured for paw volume as described above.
We next investigated the effect of varying intravenous doses of Compound 202 (0.05, 0.10, 0.30, and 1.00 mg/kg) in the same model using the same protocol (6 rats per group). […] We also investigated the affect of oral dosing (10 mg/kg) of Compound 202 in the same model. For oral dosing, a 2.5 mg/mL suspension of Compound 202 was prepared in Vehicle A. Rats were orally administered 4 mL/kg of that suspension.

[3] = read-out: Activity (IC50, inhibition of TNFα binding to TNFα R1/Fc)
[4] = 5 μM compound, HeLa or A431 cells
[5] = 10 μM compound, HeLa or A431 cells
[6] = Activity (IC50, inhibition of TNFα binding to TNFα R1/Fc)

T1 sequence (P01375 77-233 limits assumed, species assumed): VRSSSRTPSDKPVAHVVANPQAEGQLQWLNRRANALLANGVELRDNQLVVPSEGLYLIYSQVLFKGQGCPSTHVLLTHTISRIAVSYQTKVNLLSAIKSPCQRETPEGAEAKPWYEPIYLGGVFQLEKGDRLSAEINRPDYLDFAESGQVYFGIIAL

Work on `C[C@@H](NC(=O)[C@@H]1Cc2ccc(cc2)OCC(=O)N[C@@H](Cc2cccs2)C(=O)N[C@H](Cc2ccc(-c3ccccc3)cc2)C(=O)N[C@@H](Cc2ccccc2)C(=O)N1)C(=O)O` [Compound 384] yielded an IC50 [1, 3] of less than 10 µM, an inhibition at 5 µM [2, 4] of less than 10% and an inhibition at 10 µM [2, 5] of less than 10%.
`C[C@H](NC(=O)[C@@H]1Cc2ccc(cc2)OCC(=O)N[C@@H](Cc2cccs2)C(=O)N[C@H](Cc2ccc(-c3ccccc3)cc2)C(=O)N[C@@H](Cc2ccccc2)C(=O)N1)C(=O)O` [Compound 385] gave an IC50 [1, 3] of less than 10 µM, an inhibition at 5 µM [2, 4] of 50 to 80% and an inhibition at 10 µM [2, 5] greater than 80%.
In the case of `O=C(O)CCCNC(=O)[C@@H]1Cc2ccc(cc2)OCC(=O)N[C@@H](Cc2cccs2)C(=O)N[C@H](Cc2ccc(-c3ccccc3)cc2)C(=O)N[C@@H](Cc2ccccc2)C(=O)N1` [Compound 386], the IC50 [1, 3] is reported as less than 10 µM, the inhibition at 5 µM [2, 4] is reported as less than 10% and the inhibition at 10 µM [2, 5] is reported as less than 10%.
`COC(=O)[C@H](CC(=O)O)NC(=O)[C@@H]1Cc2ccc(cc2)OCC(=O)N[C@@H](Cc2cccs2)C(=O)N[C@H](Cc2ccc(-c3ccccc3)cc2)C(=O)N[C@@H](Cc2ccccc2)C(=O)N1` [Compound 388] showed an IC50 [1, 3] of less than 10 µM, an inhibition at 5 µM [2, 4] of less than 10% and an inhibition at 10 µM [2, 5] of 10 to 50%.
`O=C1COc2ccc(cc2)C[C@@H](C(=O)NCCO)NC(=O)[C@H](Cc2ccccc2)NC(=O)[C@@H](Cc2ccc(-c3ccccc3)cc2)NC(=O)[C@H](Cc2cccs2)N1` [Compound 390] was tested, and the IC50 [1, 6] was less than 10 µM, the inhibition at 5 µM [2] was less than 10% and the inhibition at 10 µM [2] was 50 to 80%.
`O=C1COc2ccc(cc2)C[C@@H](C(=O)NC2(C(=O)O)CC2)NC(=O)[C@H](Cc2ccccc2)NC(=O)[C@@H](Cc2ccc(-c3ccccc3)cc2)NC(=O)[C@H](Cc2cccs2)N1` [Compound 391] gave an IC50 [1, 6] of less than 10 µM, an inhibition at 5 µM [2] of 10 to 50% and an inhibition at 10 µM [2] of 10 to 50%.
For `O=C(O)CCCCCNC(=O)[C@@H]1Cc2ccc(cc2)OCC(=O)N[C@H](Cc2cccs2)C(=O)N[C@@H](Cc2ccc(-c3ccccc3)cc2)C(=O)N[C@H](CCc2ccccc2)C(=O)N1` [Compound 395], the IC50 [1, 3] was less than 10 µM, the inhibition at 5 µM [2, 4] was less than 10% and the inhibition at 10 µM [2, 5] was less than 10%.
Compound `O=C1COc2ccc(cc2)C[C@@H](C(=O)O)NC(=O)[C@H](Cc2ccccc2)NC(=O)[C@H](Cc2ccc(-c3ccc(C(=O)OCc4ccccc4)cc3)cc2)NC(=O)[C@H](Cc2cccs2)N1` [Compound 396] has an IC50 [1, 3] of less than 10 µM, an inhibition at 5 µM [2] of 10 to 50% and an inhibition at 10 µM [2] of 50 to 80%.
In the case of `CC(=O)O[C@H]1C(=O)Nc2ccc(cc2)C[C@H](C(=O)N[C@@H](Cc2ccccc2)C(=O)O)NC(=O)[C@@H](Cc2ccccc2)NC(=O)[C@H](Cc2ccc(Br)cc2)NC(=O)[C@@H](Cc2cccs2)NC(=O)[C@@H]1OC(C)=O` [Compound 410] ([d2Thi][Phe(4-Br)][dF][dPhe(4-NH2)]F-OH; linker N-4 via Tartaroyl(2R,3R-(OAc)2)), the IC50 [1, 3] is reported as less than 10 µM, the inhibition at 5 µM [2, 4] is reported as less than 10% and the inhibition at 10 µM [2, 5] is reported as 10 to 50%.
With `COc1ccc2c(c1)c(CC(=O)O)c(C)n2C(=O)c1ccc(Cl)cc1` [indomethacin, reference compound] the “Change in Paw Volume” value (rat paw edema model; Table 3, positive control 5 mg/kg IP, 2 h post-carrageenan) was 0.61 ± 0.10 mL, the “Change in Paw Volume” value (rat paw edema model; Table 3, positive control 5 mg/kg IP, 4 h post-carrageenan) was 0.92 ± 0.12 mL and the “Change in Paw Volume” value (rat paw edema model; Table 3, positive control 5 mg/kg IP, 6 h post-carrageenan) was 0.99 ± 0.10 mL. For the same compound, the “Change in Paw Volume” value (rat paw edema model; Table 4, positive control IP (5 mg/kg), 2 h post-carrageenan) was 0.61 ± 0.08 mL, the “Change in Paw Volume” value (rat paw edema model; Table 4, positive control IP (5 mg/kg), 4 h post-carrageenan) was 0.82 ± 0.05 mL and the “Change in Paw Volume” value (rat paw edema model; Table 4, positive control IP (5 mg/kg), 6 h post-carrageenan) was 0.90 ± 0.11 mL. The “Change in Paw Volume” value (rat paw edema model; Table 5, positive control IP (5 mg/kg), 2 h post-carrageenan) was 0.82 ± 0.08 mL, the “Change in Paw Volume” value (rat paw edema model; Table 5, positive control IP (5 mg/kg), 4 h post-carrageenan) was 0.94 ± 0.10 mL and the “Change in Paw Volume” value (rat paw edema model; Table 5, positive control IP (5 mg/kg), 6 h post-carrageenan) was 0.87 ± 0.11 mL. For the same compound, the “Change in Paw Volume” value (rat paw edema model; Table 6, positive control IP (5 mg/kg), 2 h post-carrageenan) was 0.63 ± 0.08 mL, the “Change in Paw Volume” value (rat paw edema model; Table 6, positive control IP (5 mg/kg), 4 h post-carrageenan) was 0.79 ± 0.17 mL and the “Change in Paw Volume” value (rat paw edema model; Table 6, positive control IP (5 mg/kg), 6 h post-carrageenan) was 0.82 ± 0.21 mL. The “Change in Paw Volume” value (rat paw edema model; Table 7, positive control IP (5 mg/kg), 2 h post-carrageenan) was 0.75 ± 0.14 mL, the “Change in Paw Volume” value (rat paw edema model; Table 7, positive control IP (5 mg/kg), 4 h post-carrageenan) was 1.02 ± 0.09 mL and the “Change in Paw Volume” value (rat paw edema model; Table 7, positive control IP (5 mg/kg), 6 h post-carrageenan) was 1.07 ± 0.08 mL. The “Change in Paw Volume” value (rat paw edema model; Table 8, positive control IP (5 mg/kg), 2 h post-carrageenan) was 0.76 ± 0.13 mL, the “Change in Paw Volume” value (rat paw edema model; Table 8, positive control IP (5 mg/kg), 4 h post-carrageenan) was 0.92 ± 0.09 mL and the “Change in Paw Volume” value (rat paw edema model; Table 8, positive control IP (5 mg/kg), 6 h post-carrageenan) was 0.74 ± 0.08 mL. For the same compound, the “Change in Paw Volume” value (rat paw edema model; Table 9, positive control IP (5 mg/kg), 2 h post-carrageenan) was 0.75 ± 0.14 mL, the “Change in Paw Volume” value (rat paw edema model; Table 9, positive control IP (5 mg/kg), 4 h post-carrageenan) was 1.02 ± 0.09 mL and the “Change in Paw Volume” value (rat paw edema model; Table 9, positive control IP (5 mg/kg), 6 h post-carrageenan) was 1.07 ± 0.08 mL. For the same compound, the “Change in Paw Volume” value (rat paw edema model; Table 10, positive control IP (5 mg/kg), 2 h post-carrageenan) was 0.63 ± 0.08 mL, the “Change in Paw Volume” value (rat paw edema model; Table 10, positive control IP (5 mg/kg), 4 h post-carrageenan) was 0.79 ± 0.17 mL and the “Change in Paw Volume” value (rat paw edema model; Table 10, positive control IP (5 mg/kg), 6 h post-carrageenan) was 0.82 ± 0.21 mL.
